In patent US20250073226A1, “USE OF OPIOID FOR TREATMENT OF AUTISM SPECTRUM DISORDERS” (priority 2021, published 2025):
Several values for one entry are separate records, joined by “and”; a condition that tells them apart may be missing. Identical values can stand only once. Marks after values point to notes of the source that are not given here.

Assays:
nucleus accumbens (NAc) = assay: Brain activation: c-Fos positive cells in nucleus accumbens; format: in vivo, mice; details: VPA model, 1 hour after administration
Protocol: (§1) Saline or buprenorphine at 0.0003, 0.003, or 0.03 mg/kg was administered to the VPA model, and 1 hour after that, the brain was extracted and immunostained with an anti-c-Fos antibody, and the number of c-Fos positive cells in nucleus accumens (NAc) and medial prefrontal cortex, which are brain regions known to promote social behavior, and dorsomedial periaqueductal gray (dmPAG), which is a brain region known to reduce social behavior and to be involved in the expression of analgesic effects, was quantified as the number of activated nerve cells.

medial prefrontal cortex = assay: Brain activation: c-Fos positive cells in medial prefrontal cortex; format: in vivo, mice; details: VPA model, 1 hour after administration
Protocol: as §1

[1] = Pharmacokinetic: drug concentrations in plasma by LC-MS after subcutaneous administration; details: for concentration at 0.5 h: Plasma concentration 0.5 hr; for concentration at 1 h: Plasma concentration 1 hr; for concentration at 3 h: Plasma concentration 3 hr; for concentration at 12 h: Plasma concentration 12 hr; for concentration at 24 h: Plasma concentration 24 hr
[2] = test system: valproic acid model mice (VPA model); assay: Social interaction test in valproic acid model mice; format: in vivo, ICR mice; details: single s.c. dose
Source text: Since ASD-like symptoms such as social impairment and cognitive dysfunction are observed, it is one of the most widely used the ASD model mice.
As the sociality evaluation, a method called a social interaction test was used. In the Social Interaction Test, two mice are placed in one cage, and how many seconds a target mouse (Test mouse) performs sniffing, which is social behavior, on another mouse (Intruder mouse) is quantified.

Fmr1 knockout mice = assay: 3 chamber test in Fmr1 knockout mice; format: in vivo; details: single subcutaneous administration, low dose of less than 1/10 of 1 mg/kg
Source text: It is known that patients with human fragile X syndrome (FXS), which is caused by abnormalities of the X chromosome, present with social impairment symptoms, such as those often seen in ASD (Non-patent Documents 7 to 9). The Fmr1 knockout mouse (Cell, 1994, 15; 78 (1): 23-33) is a model mouse that mimics human fragile X syndrome (FXS), and is also widely used as a model of ASD. Buprenorphine hydrochloride, a MOR partial agonist used as an analgesic, and physiological saline of a solvent were administered once, and the action on social dysfunction of Fmr1 knockout mice was examined. The dose was calculated as a free form for buprenorphine. As a social function evaluation, a 3 chamber test (Nature Medicine, 2017, 23; p674-677) was used. In the 3chamber test, two types of mice (Unfamiliar and Familiar) are placed in cups at both left and right ends of three compartments, and a ratio of time to search for a mouse with high novelty to a mouse with low novelty is calculated and quantified as social function (preference to a mouse with high novelty).

[3] = Estimation of buprenorphine maximum plasma concentration in humans by proportional calculation; details: human, other: transdermal, 10 ug/kg
Protocol: As described above, preferred maximum plasma concentrations in ASD applications in mice are in the range of 26.6 pg/mL (at the time of administration of 0.3 pg/kg) to 2360 μg/mL (at the time of administration of 30p/kg) (preferably more than about 26.6 pg/mL and less than about 2360 μg/mL).

VPA model = assay: Antagonist test with naloxone in VPA model; format: in vivo, mice; details: naloxone hydrochloride 1 mg/kg s.c. 15 minutes before buprenorphine 0.003 mg/kg s.c.
Protocol: In the same manner as in Example 1, to the VPA model, Saline or a MOR selective antagonist, naloxone hydrochloride was subcutaneously administered so as to be 1 mg/kg as a hydrochloride, and 15 minutes after that, 0.003 mg/kg of buprenorphine was subcutaneously administered, and the amount of social behavior for 1 hour from 20 minutes after administration of buprenorphine was quantified.

mice = details: Non-patent Document 28, cited from earlier work
[4] = ICR mice, buprenorphine 0.1 μg/kg s.c., individual samples
[5] = ICR mice, buprenorphine 0.3 μg/kg s.c., individual samples
[6] = ICR mice, buprenorphine 3 μg/kg s.c., individual samples
[7] = ICR mice, buprenorphine 10 μg/kg s.c., individual samples
[8] = ICR mice, buprenorphine 30 μg/kg s.c., individual samples
[9] = ICR, mouse, plasma, sc, 0.1 μg/kg, ICR mice, buprenorphine 0.1 μg/kg s.c., Mean
[10] = ICR, mouse, plasma, sc, 0.1 μg/kg, ICR mice, buprenorphine 0.1 μg/kg s.c., individual samples
[11] = ICR, mouse, plasma, sc, 0.3 μg/kg, ICR mice, buprenorphine 0.3 μg/kg s.c., Mean
[12] = ICR, mouse, plasma, sc, 0.3 μg/kg, ICR mice, buprenorphine 0.3 μg/kg s.c., individual samples
[13] = ICR, mouse, plasma, sc, 1 μg/kg, ICR mice, buprenorphine 1 μg/kg s.c., Measured value
[14] = ICR, mouse, plasma, sc, 3 μg/kg, ICR mice, buprenorphine 3 μg/kg s.c., Mean
[15] = ICR, mouse, plasma, sc, 3 μg/kg, ICR mice, buprenorphine 3 μg/kg s.c., individual samples
[16] = ICR, mouse, plasma, sc, 10 μg/kg, ICR mice, buprenorphine 10 μg/kg s.c., Mean
[17] = ICR, mouse, plasma, sc, 10 μg/kg, ICR mice, buprenorphine 10 μg/kg s.c., individual samples
[18] = ICR, mouse, plasma, sc, 30 μg/kg, ICR mice, buprenorphine 30 μg/kg s.c., Mean
[19] = ICR, mouse, plasma, sc, 30 μg/kg, ICR mice, buprenorphine 30 μg/kg s.c., individual samples

For `CO[C@]12CC[C@@]3(C[C@@H]1[C@](C)(O)C(C)(C)C)[C@H]1Cc4ccc(O)c5c4[C@@]3(CCN1CC1CC1)[C@H]2O5` [buprenorphine, 21-cyclopropyl-7-a-[(S)-1-hydroxy-1,2,2-trimethylpropyl]-6,14-endo-ethano-6,7,8,14 tetrahydrooripavine], the “number of activated nerve cells (c-Fos positive cells)” value (shortened to “number of activated nerve cells”) (nucleus accumbens (NAc); 0.003 mg/kg) was “significantly increased”, the “number of activated nerve cells” value (nucleus accumbens (NAc); 0.03 mg/kg) was “significantly increased” and the “number of activated nerve cells” value (medial prefrontal cortex; 0.003 mg/kg) was “significantly increased”. For the same molecule, the “number of activated nerve cells” value (medial prefrontal cortex; 0.03 mg/kg) was “significantly increased”, the “Plasma concentration 0.5 hr” value [1, 4] was 6.85 pg/mL and 6.52 pg/mL and the “Plasma concentration 1 hr” value [1, 4] was 4.66 pg/mL and 5.36 pg/mL. For the same molecule, the “Plasma concentration 3 hr” value [1, 4] was “BLQ (BLQ: LLOQ (lower limit of quantitation: 2 pg/mL) or less)”, the “Plasma concentration 12 hr” value [1, 4] was “BLQ (BLQ: LLOQ (lower limit of quantitation: 2 pg/mL) or less)” and the “Plasma concentration 24 hr” value [1, 4] was “BLQ (BLQ: LLOQ (lower limit of quantitation: 2 pg/mL) or less)”. For the same molecule, the “Plasma concentration 0.5 hr” value [1, 5] was 26 pg/mL and 30.9 pg/mL, the “Plasma concentration 1 hr” value [1, 5] was 13.7 pg/mL and 16.5 pg/mL and the “Plasma concentration 3 hr” value [1, 5] was 5.08 pg/mL and 4.87 pg/mL. For the same molecule, the “Plasma concentration 12 hr” value [1, 5] was “BLQ (BLQ: LLOQ (lower limit of quantitation: 2 pg/mL) or less)”, the “Plasma concentration 24 hr” value [1, 5] was “BLQ (BLQ: LLOQ (lower limit of quantitation: 2 pg/mL) or less)” and the Cmax ([1]; ICR mice, buprenorphine 1 μg/kg s.c.) was 0.067 ng/mL. The “Plasma concentration 0.5 hr” value [1, 6] was 260 pg/mL and 271 pg/mL, the “Plasma concentration 1 hr” value [1, 6] was 119 pg/mL and 127 pg/mL and the “Plasma concentration 3 hr” value [1, 6] was 47.6 pg/mL and 83.3 pg/mL. The “Plasma concentration 12 hr” value [1, 6] was 0.00358 ng/mL and 0.00346 ng/mL, the “Plasma concentration 24 hr” value [1, 6] was “BLQ (BLQ: LLOQ (lower limit of quantitation: 2 pg/mL) or less)” and the Cmax ([1]; ICR mice, buprenorphine 10 μg/kg s.c.) was 0.67 ng/mL. For the same molecule, the “Plasma concentration 0.5 hr” value [1, 7] was 711* pg/mL and 666* pg/mL, the “Plasma concentration 1 hr” value [1, 7] was 471* pg/mL and 367* pg/mL and the “Plasma concentration 3 hr” value [1, 7] was 145 pg/mL and 135 pg/mL. For the same molecule, the “Plasma concentration 12 hr” value [1, 7] was 0.0171 ng/mL and 0.0271 ng/mL and 0.00669 ng/mL, the “Plasma concentration 24 hr” value [1, 7] was “BLQ (BLQ: LLOQ (lower limit of quantitation: 2 pg/mL) or less)” and the Cmax ([1]; ICR mice, buprenorphine 30 μg/kg s.c.) was 2.36 ng/mL. The “Plasma concentration 0.5 hr” value [1, 8] was 2560* pg/mL and 2770* pg/mL, the “Plasma concentration 1 hr” value [1, 8] was 1480* pg/mL and 1670* pg/mL and the “Plasma concentration 3 hr” value [1, 8] was 436* pg/mL and 494* pg/mL. The “Plasma concentration 12 hr” value [1, 8] was 0.0312 ng/mL and 0.0727 ng/mL and 0.0313 ng/mL, the “Plasma concentration 24 hr” value [1, 8] was 0.00768 ng/mL and 0.0042 ng/mL and the Cmax ([1]; ICR, mouse, plasma, sc, 0.1 ug/kg) was 0.00778 ng/mL. The concentration at 0.5 h [1, 9] was 0.00778 ng/mL, the concentration at 0.5 h [1, 10] was 0.00998 ng/mL and the concentration at 1 h [1, 9] was 0.00485 ng/mL. The concentration at 1 h [1, 10] was 0.00452 ng/mL, the concentration at 3 h [1, 9] was 0.001 ng/mL and the concentration at 3 h [1, 10] was 0.00299 ng/mL. It also gave a concentration at 12 h [1, 9] of 0 ng/mL, a concentration at 24 h [1, 9] of 0 ng/mL and a Cmax ([1]; ICR, mouse, plasma, sc, 0.3 ug/kg) of 0.0266 ng/mL. It also gave a concentration at 0.5 h [1, 11] of 0.0266 ng/mL, a concentration at 0.5 h [1, 12] of 0.0228 ng/mL and a concentration at 1 h [1, 11] of 0.0148 ng/mL. The concentration at 1 h [1, 12] was 0.0143 ng/mL, the concentration at 3 h [1, 11] was 0.00477 ng/mL and the concentration at 3 h [1, 12] was 0.00436 ng/mL. It also gave a concentration at 12 h [1, 11] of 0 ng/mL, a concentration at 24 h [1, 11] of 0 ng/mL and a Cmax ([1]; ICR, mouse, plasma, sc, 1 ug/kg) of 0.067 ng/mL. For the same molecule, the concentration at 0.5 h [1, 13] was 0.067 ng/mL, the concentration at 1 h [1, 13] was 0.025 ng/mL and the concentration at 3 h [1, 13] was 0.02 ng/mL. For the same molecule, the Cmax ([1]; ICR, mouse, plasma, sc, 3 ug/kg) was 0.268 ng/mL, the concentration at 0.5 h [1, 14] was 0.268 ng/mL and the concentration at 0.5 h [1, 15] was 0.274 ng/mL. For the same molecule, the concentration at 1 h [1, 14] was 0.126 ng/mL, the concentration at 1 h [1, 15] was 0.132 ng/mL and the concentration at 3 h [1, 14] was 0.0641 ng/mL. For the same molecule, the concentration at 3 h [1, 15] was 0.0613 ng/mL, the concentration at 12 h [1, 14] was 0.00312 ng/mL and the concentration at 12 h [1, 15] was 0.00231 ng/mL. For the same molecule, the concentration at 24 h [1, 14] was 0 ng/mL, the Cmax ([1]; ICR, mouse, plasma, sc, 10 ug/kg) was 0.67 ng/mL and the concentration at 0.5 h [1, 16] was 0.67 ng/mL. It also gave a concentration at 0.5 h [1, 17] of 0.632 ng/mL, a concentration at 1 h [1, 16] of 0.399 ng/mL and a concentration at 1 h [1, 17] of 0.358 ng/mL. For the same molecule, the concentration at 3 h [1, 16] was 0.147 ng/mL, the concentration at 3 h [1, 17] was 0.16 ng/mL and the concentration at 12 h [1, 16] was 0.017 ng/mL. For the same molecule, the concentration at 24 h [1, 16] was 0.000777 ng/mL, the concentration at 24 h [1, 17] was 0.00233 ng/mL and the Cmax ([1]; ICR, mouse, plasma, sc, 30 ug/kg) was 2.36 ng/mL. It also gave a concentration at 0.5 h [1, 18] of 2.36 ng/mL, a concentration at 0.5 h [1, 19] of 1.76 ng/mL and a concentration at 1 h [1, 18] of 1.49 ng/mL. The concentration at 1 h [1, 19] was 1.32 ng/mL, the concentration at 3 h [1, 18] was 0.447 ng/mL and the concentration at 3 h [1, 19] was 0.412 ng/mL. It also gave a concentration at 12 h [1, 18] of 0.0451 ng/mL, a concentration at 24 h [1, 18] of 0.00551 ng/mL and a concentration at 24 h [1, 19] of 0.00464 ng/mL. The “improvement effect in social impairment at a high dose” value ([2]; high dose close to the analgesic dose) was “reduced the improvement effect in social impairment”, the “improvement effect in social impairment” value ([2]; low dose of less than 1/10 of the dose of maximum analgesic effect, 20 minutes from 1 hour after administration) was “significant improvement effect in social impairment” and the “improvement effect in social impairment (3 chamber test)” value (Fmr1 knockout mice) was “significant improvement effect in social impairment”. For the same molecule, the Cmax [3] was 0.084 to 0.176 ng/mL, the “improvement effect in social impairment with combined use of naloxone” value (VPA model) was “antagonized by combined use of naloxone” and the “dose at which the analgesic effect was maximum” value (mice) was 1 mg/kg. The “minimum dose at which the analgesic effect is observed” value (mice; subcutaneous administration) was 0.01 mg/kg.
